Test results: ChEMBL document CHEMBL1201862, “PubChem BioAssay data set” (2004)
One block for each molecule: values may come before it. Activity calls are given as the source filed them.

Key:
[1] = target: T1, Tyrosine-protein phosphatase non-receptor type 22 (Homo sapiens, UniProt Q9Y2R2); experiment: inhibition of lymphoid tyrosine phosphatase LYP – biochemical, pCAP fluorogenic substrate, fluorescence, set 3, SAR follow-up (AID 449727); format: functional
T1 sequence (Q9Y2R2 whole entry): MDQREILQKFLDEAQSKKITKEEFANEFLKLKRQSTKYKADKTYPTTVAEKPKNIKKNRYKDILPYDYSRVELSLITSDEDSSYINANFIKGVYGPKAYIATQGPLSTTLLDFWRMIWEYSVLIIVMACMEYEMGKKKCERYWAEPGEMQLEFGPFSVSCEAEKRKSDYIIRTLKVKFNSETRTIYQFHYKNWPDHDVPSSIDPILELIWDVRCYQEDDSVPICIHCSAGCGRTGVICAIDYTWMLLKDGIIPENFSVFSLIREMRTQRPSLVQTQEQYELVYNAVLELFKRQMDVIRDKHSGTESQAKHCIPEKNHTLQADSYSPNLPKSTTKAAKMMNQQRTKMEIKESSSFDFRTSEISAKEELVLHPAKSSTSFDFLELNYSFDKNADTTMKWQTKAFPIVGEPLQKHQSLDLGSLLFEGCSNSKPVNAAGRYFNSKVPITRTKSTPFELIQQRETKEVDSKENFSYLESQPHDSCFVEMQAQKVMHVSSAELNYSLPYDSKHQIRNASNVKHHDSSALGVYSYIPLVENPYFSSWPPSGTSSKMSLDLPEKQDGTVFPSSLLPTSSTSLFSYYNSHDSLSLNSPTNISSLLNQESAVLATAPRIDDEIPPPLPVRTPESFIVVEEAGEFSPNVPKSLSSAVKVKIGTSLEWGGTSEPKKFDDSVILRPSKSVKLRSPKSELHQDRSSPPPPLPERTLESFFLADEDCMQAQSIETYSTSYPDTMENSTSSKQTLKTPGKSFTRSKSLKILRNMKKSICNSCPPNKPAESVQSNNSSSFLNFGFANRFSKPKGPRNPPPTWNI

[2] = target: T1, Tyrosine-protein phosphatase non-receptor type 22; experiment: PubChem AID 2140
[3] = target: T1, Tyrosine-protein phosphatase non-receptor type 22; experiment: PubChem AID 2135
Mu-type opioid receptor = Mu-type opioid receptor (Homo sapiens, UniProt P35372); experiment: SAR Analysis of Agonists of the MOR Receptor using an Image-Based Assay - Set 3. [Related pubchem assays (depositor defined):AID1777, AID1785, AID1786, AID1966, AID2133, AID2136, AID2284, AID2285, AID2352]; format: functional
[4] = target: T2, Kappa-type opioid receptor (Homo sapiens, UniProt P41145); experiment: kappa opioid receptor activation by imaging – image-based, set 3, SAR follow-up (AID 488833); format: functional
[5] = target: Delta-type opioid receptor (Homo sapiens, UniProt P41143); experiment: SAR Analysis of Agonists of the DOR Receptor using an Image-Based Assay - Set 3. [Related pubchem assays (depositor defined):AID1777, AID1786]; format: functional
[6] = target: T2, Kappa-type opioid receptor; experiment: SAR analysis of small molecule agonists of the kappa opioid receptor via a luminescent beta-arrestin assay - Set 3. [Related pubchem assays (depositor defined):AID1777, AID1785, AID1786, AID1966, AID2133, AID2136, AID2284, AID2500]; format: functional
[7] = target: T3, Voltage-dependent T-type calcium channel subunit alpha-1H (Homo sapiens, UniProt O95180); experiment: human CACNA1H calcium influx blockade – cell-based, synthetic library set 1, calcium flux (AID 493022); format: functional
[8] = target: T3, Voltage-dependent T-type calcium channel subunit alpha-1H; experiment: human CACNA1H calcium influx blockade – cell-based, synthetic library set 2, HEK293 HH8, Fluo-4, SAR follow-up (AID 493023); format: functional
Trypanosoma cruzi = experiment: anti-trypanosomal activity in host cells – cell-based, plate reader, dry powder, set 3, dose response (AID 493197); format: functional
[9] = NIH/3T3 cell viability loss – mouse embryonic fibroblasts, dry powder, set 2, cytotoxicity control, dose response (AID 493247); format: functional, cell-based; conditions: Fibroblast

T3 sequence (O95180 whole entry): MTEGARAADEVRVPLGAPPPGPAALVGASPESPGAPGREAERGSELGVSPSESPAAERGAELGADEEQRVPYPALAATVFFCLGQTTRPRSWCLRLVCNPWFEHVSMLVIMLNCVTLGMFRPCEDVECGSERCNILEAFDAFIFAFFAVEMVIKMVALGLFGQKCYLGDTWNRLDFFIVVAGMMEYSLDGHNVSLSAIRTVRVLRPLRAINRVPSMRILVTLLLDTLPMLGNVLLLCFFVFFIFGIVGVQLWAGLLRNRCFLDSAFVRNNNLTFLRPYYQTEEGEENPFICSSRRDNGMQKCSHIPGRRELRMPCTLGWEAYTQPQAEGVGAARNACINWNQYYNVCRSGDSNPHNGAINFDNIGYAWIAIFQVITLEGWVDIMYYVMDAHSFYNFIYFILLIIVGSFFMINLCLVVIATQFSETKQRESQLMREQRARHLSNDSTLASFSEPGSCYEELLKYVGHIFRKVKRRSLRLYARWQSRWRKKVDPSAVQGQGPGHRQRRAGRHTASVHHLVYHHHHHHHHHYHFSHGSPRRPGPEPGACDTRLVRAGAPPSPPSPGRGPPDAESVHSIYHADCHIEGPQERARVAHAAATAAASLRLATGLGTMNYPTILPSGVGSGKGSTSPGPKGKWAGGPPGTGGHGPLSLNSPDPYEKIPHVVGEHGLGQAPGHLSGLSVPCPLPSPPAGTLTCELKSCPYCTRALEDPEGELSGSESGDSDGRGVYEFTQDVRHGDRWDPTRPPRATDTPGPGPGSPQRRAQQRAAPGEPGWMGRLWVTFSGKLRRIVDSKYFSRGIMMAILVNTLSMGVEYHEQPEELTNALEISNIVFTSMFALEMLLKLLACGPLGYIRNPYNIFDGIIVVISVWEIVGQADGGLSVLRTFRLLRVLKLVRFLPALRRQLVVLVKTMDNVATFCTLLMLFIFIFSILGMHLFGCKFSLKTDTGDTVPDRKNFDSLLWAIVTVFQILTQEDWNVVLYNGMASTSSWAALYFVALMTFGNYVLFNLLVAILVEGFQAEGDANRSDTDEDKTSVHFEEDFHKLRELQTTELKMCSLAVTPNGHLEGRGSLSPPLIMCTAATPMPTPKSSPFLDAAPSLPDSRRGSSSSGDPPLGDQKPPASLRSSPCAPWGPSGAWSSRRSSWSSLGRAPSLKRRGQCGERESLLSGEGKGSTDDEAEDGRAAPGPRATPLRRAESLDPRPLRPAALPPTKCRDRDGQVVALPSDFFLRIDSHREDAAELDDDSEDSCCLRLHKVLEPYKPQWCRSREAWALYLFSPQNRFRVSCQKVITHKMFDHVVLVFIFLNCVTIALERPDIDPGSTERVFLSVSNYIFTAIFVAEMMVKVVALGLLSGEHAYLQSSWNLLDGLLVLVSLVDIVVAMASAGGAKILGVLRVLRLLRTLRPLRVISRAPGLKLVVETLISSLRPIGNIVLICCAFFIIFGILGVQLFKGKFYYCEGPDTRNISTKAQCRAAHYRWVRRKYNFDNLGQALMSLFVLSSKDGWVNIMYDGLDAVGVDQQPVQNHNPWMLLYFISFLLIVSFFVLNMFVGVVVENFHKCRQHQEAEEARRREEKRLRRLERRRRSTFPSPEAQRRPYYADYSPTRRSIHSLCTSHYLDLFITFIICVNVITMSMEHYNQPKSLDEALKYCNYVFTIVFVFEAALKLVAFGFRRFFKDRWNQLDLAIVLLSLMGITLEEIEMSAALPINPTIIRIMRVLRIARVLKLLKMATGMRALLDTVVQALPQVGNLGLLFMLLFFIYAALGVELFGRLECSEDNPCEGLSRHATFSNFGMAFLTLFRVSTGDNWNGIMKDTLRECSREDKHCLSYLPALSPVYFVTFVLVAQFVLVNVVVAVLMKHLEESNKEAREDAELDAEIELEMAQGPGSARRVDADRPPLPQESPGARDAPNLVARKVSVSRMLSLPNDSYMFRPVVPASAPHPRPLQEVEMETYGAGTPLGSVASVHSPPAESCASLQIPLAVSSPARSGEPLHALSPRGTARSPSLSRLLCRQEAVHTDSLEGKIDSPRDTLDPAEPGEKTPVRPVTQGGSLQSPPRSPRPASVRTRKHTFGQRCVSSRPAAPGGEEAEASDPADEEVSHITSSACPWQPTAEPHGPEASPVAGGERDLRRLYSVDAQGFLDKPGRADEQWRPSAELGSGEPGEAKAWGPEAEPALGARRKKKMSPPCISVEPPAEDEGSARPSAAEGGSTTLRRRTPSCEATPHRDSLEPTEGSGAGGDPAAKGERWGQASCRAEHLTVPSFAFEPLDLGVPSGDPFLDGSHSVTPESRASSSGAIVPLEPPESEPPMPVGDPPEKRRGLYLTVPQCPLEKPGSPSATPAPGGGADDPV
T2 sequence (P41145 whole entry): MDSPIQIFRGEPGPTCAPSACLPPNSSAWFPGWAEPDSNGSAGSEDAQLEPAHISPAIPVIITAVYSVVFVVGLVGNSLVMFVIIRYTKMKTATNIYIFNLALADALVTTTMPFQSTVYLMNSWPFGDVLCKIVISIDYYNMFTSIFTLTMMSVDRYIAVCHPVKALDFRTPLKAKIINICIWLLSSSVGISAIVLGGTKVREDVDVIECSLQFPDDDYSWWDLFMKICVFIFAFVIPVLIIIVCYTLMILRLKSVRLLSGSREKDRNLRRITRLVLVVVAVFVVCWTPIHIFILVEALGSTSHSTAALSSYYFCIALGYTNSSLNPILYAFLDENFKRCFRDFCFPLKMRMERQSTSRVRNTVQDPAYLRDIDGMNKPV
Mu-type opioid receptor, sequence (P35372 whole entry): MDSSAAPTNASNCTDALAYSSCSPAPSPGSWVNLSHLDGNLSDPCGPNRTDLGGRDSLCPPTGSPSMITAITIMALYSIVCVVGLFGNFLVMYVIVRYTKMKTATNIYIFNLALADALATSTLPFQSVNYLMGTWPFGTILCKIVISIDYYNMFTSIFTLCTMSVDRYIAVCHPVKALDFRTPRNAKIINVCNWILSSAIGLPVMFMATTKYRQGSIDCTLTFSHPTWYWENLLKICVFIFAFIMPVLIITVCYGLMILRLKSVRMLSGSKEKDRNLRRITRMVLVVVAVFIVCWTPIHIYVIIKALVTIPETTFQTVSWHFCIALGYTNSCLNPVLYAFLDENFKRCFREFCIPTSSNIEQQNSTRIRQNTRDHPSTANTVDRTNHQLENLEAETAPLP
Delta-type opioid receptor, sequence (P41143 whole entry): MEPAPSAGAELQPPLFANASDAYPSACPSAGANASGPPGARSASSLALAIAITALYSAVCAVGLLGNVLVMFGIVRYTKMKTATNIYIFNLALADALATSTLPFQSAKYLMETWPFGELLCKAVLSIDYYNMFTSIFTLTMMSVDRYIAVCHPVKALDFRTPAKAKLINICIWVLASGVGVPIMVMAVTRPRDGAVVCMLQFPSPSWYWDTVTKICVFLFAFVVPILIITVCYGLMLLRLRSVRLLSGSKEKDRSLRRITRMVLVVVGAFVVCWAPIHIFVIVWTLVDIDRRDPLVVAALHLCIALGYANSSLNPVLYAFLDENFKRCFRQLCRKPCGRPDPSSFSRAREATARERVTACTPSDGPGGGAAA

Structure (SMILES): CCOc1ccc2nc(NC(=O)CSC3=Nc4sc(C)c(C)c4C(=O)C3)sc2c1
IC50 [1]: > 100 µM (inactive)
IC50 [2]: 43.4 µM (active)
IC50 [3]: > 100 µM (inactive)

Structure (SMILES): CC(C)(C)CCN1CCC[C@H](NC(=O)COc2ccccc2F)C1
EC50 [8]: 10 µM (active)

Structure (SMILES): CN(Cc1ccccc1)C(=O)C1CCCN(Cc2ccc(Br)cc2)C1 (stereo unspecified)
AC50 (Trypanosoma cruzi): 3.01 µM (active)
AC50 [9]: 74.3 µM (active)

Next, values leading:

EC50 (Mu-type opioid receptor): > 32 µM (inactive)
EC50 [4]: 2.26 µM (active)
EC50 [5]: > 32 µM (inactive)
EC50 [6]: 4.46 µM (active)
Structure (SMILES): Fc1ccc(CSc2nnc(-c3ccccn3)n2Cc2cccs2)c(C(F)(F)F)c1

EC50 [7]: 1.5 µM (active)
Structure (SMILES): O=C(COc1ccc(Cl)cc1)Nc1nnc(-c2ccc(F)c(F)c2)o1
